Each structure is given as a SMILES string.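 Step 1: Grow cells in 96-well plates. Step 2: Expose to compound for 48 hours at 5 concentrations. Step 3: Interpolate endpoints linearly; if unreached, use highest concentration. GI50 is the concentration that inhibits growth by half.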 Activity calls are given as the source filed them. Rule as the data show it: active = GI50 up to about 1.1 µM and inactive = higher. A value given as a limit tells only on which side of the number the result lay.

Some test systems named below: KM-20L2; SK-OV-3; SNB-78; OVCAR-5; K562; MOLT-4; SF-268; HCT-15; A549; SK-MEL-2; NCI-H23; NCI-H460; HCT-116; EKVX; SF-539; M19-MEL; SK-MEL-28.
Assay in all cases: NCI-60 cell line screen, 48 h

For `Cc1ccc(NC(=O)CCC(=O)C(C#N)c2ccccc2)cc1C` (centres undefined), the GI50 with KM-20L2, in the assay with SK-OV-3, in the assay on SNB-78, with OVCAR-5, in the assay with K562 and in the assay with MOLT-4 was > 100 µM (inactive) each time. Also, the GI50 in the assay with SF-268 was > 100 µM (inactive); with HCT-15, greater than 100 µM; in the assay on A549, > 100 µM (inactive); with SK-MEL-2 it was > 100 µM (inactive); in the assay on NCI-H23, > 100 µM (inactive); in the assay on NCI-H460 it was > 100 µM (inactive). The GI50 in the assay on HCT-116, with EKVX and in the assay on SF-539 was > 100 µM (inactive) each time.

As for `Cc1cc(C)c2c(c1)CSCc1cc(C)cc(C)c1-2`, the GI50 was 35.1 µM (inactive) in the assay with KM-20L2; 88.9 µM (inactive) in the assay on SK-OV-3; 25.1 µM (inactive) in the assay on SNB-78; 29.9 µM (inactive) in the assay with OVCAR-5; 32.8 µM (inactive) in the assay on K562; 21.1 µM (inactive) with MOLT-4. Moreover, the GI50 was 25.1 µM (inactive) in the assay with M19-MEL; 38.7 µM (inactive) in the assay on SF-268; 32.4 µM with HCT-15; 30.9 µM (inactive) in the assay with A549; 21.3 µM (inactive) in the assay on SK-MEL-2; 36.9 µM (inactive) with NCI-H23. Besides, the GI50 in the assay on SK-MEL-28 was 1.72 µM (inactive); in the assay on NCI-H460, 24.2 µM (inactive); in the assay with HCT-116 it was 22 µM (inactive); with EKVX, 24.2 µM (inactive).

For the compound `Sc1nnc(COc2ccc(Cl)cc2Cl)[nH]1`, the GI50 in the assay on KM-20L2, in the assay with SNB-78, with OVCAR-5, in the assay with K562, in the assay with MOLT-4 and in the assay with M19-MEL was > 100 µM (inactive) in each case. In addition, the GI50 with SF-268 is > 100 µM (inactive); with HCT-15 it was greater than 100 µM; in the assay on A549, > 100 µM (inactive); in the assay on SK-MEL-2, > 100 µM (inactive); with NCI-H23 it was > 100 µM (inactive); in the assay on SK-MEL-28, > 100 µM (inactive). The GI50 in the assay with NCI-H460, in the assay on HCT-116, with EKVX and in the assay with SF-539 was > 100 µM (inactive) each time.

For the compound `O=S1(=O)OCCOS(=O)(=O)C1Br`, the GI50 with SK-OV-3, in the assay with SNB-78, with K562, in the assay with MOLT-4, in the assay on M19-MEL and in the assay with SF-268 was > 100 µM (inactive) throughout. Moreover, the GI50 in the assay on A549, in the assay on SK-MEL-2, in the assay with NCI-H23, in the assay with SK-MEL-28, in the assay with HCT-116 and in the assay on SF-539 was > 100 µM (inactive) in each case.

In the case of `COc1cccc(NC(=O)/C(CS(=O)(=O)CCC(C(C)=O)C(C)=O)=N/NC(C)(C)C)c1`, the GI50 in the assay with KM-20L2, with SK-OV-3, in the assay with SNB-78, in the assay on OVCAR-5, with K562 and with MOLT-4 was > 100 µM (inactive) each time. Moreover, the GI50 is > 100 µM (inactive) with SF-268; greater than 100 µM with HCT-15; > 100 µM (inactive) in the assay with A549; > 100 µM (inactive) with SK-MEL-2; > 100 µM (inactive) with NCI-H23; > 100 µM (inactive) with SK-MEL-28. Besides, the GI50 with NCI-H460, in the assay with HCT-116, in the assay on EKVX and in the assay with SF-539 was > 100 µM (inactive) throughout.

Turning to `COc1cc(C2C(Cl)C(=O)N2n2cnc3ccccc3c2=O)cc(OC)c1OC` (centres undefined), the GI50 in the assay on KM-20L2 is 64.3 µM (inactive); in the assay on SK-OV-3 it was > 100 µM (inactive); in the assay with SNB-78, > 100 µM (inactive); with OVCAR-5 it was > 100 µM (inactive); in the assay on K562, 20.3 µM (inactive); in the assay with MOLT-4, 59.2 µM (inactive). In addition, the GI50 with M19-MEL is > 100 µM (inactive); with SF-268, > 100 µM (inactive); in the assay with HCT-15, 63.7 µM; in the assay on A549, > 100 µM (inactive); in the assay on SK-MEL-2, > 100 µM (inactive); in the assay on NCI-H23, > 100 µM (inactive). Further, the GI50 was > 100 µM (inactive) in the assay with SK-MEL-28, > 100 µM (inactive) in the assay on NCI-H460, > 100 µM (inactive) in the assay with HCT-116 and 92 µM (inactive) in the assay on EKVX.

Regarding `OC(CCNC12CC3CC(CC(C3)C1)C2)c1ccccc1` (centres undefined), the GI50 was 49.3 µM (inactive) in the assay on KM-20L2; > 100 µM (inactive) in the assay with SK-OV-3; > 100 µM (inactive) in the assay with SNB-78; > 100 µM (inactive) in the assay with OVCAR-5; > 100 µM (inactive) in the assay on MOLT-4; > 100 µM (inactive) in the assay on M19-MEL. Also, the GI50 in the assay on SF-268 is > 100 µM (inactive); in the assay with HCT-15, greater than 100 µM; in the assay with A549 it was > 100 µM (inactive); in the assay with SK-MEL-2, > 100 µM (inactive); with NCI-H23, > 100 µM (inactive); with SK-MEL-28, > 100 µM (inactive). For the same compound, the GI50 with NCI-H460 was > 100 µM (inactive); in the assay with HCT-116, 80.7 µM (inactive); with EKVX, > 100 µM (inactive); with SF-539, > 100 µM (inactive).

With `O=C1CC2CCCCC2=C1O` (centres undefined), the GI50 in the assay with SK-OV-3, with SNB-78, in the assay on OVCAR-5, in the assay with K562, with MOLT-4 and in the assay on M19-MEL was > 100 µM (inactive) in each case. In addition, the GI50 in the assay on SF-268 is > 100 µM (inactive); in the assay with HCT-15, greater than 100 µM; in the assay on A549, > 100 µM (inactive); with SK-MEL-2 it was > 100 µM (inactive); in the assay on NCI-H23, > 100 µM (inactive); with SK-MEL-28, > 100 µM (inactive). Moreover, the GI50 with NCI-H460, in the assay with HCT-116, in the assay with EKVX and in the assay with SF-539 was > 100 µM (inactive) each time.

`C#CC[C@]12CC(=O)CC[C@H]1CC1(C2)OCCO1`: the GI50 with KM-20L2, in the assay on SK-OV-3, in the assay on SNB-78, in the assay on K562, in the assay on MOLT-4 and in the assay with M19-MEL was > 100 µM (inactive) each time. The GI50 is > 100 µM (inactive) in the assay on SF-268; greater than 100 µM in the assay on HCT-15; > 100 µM (inactive) with A549; > 100 µM (inactive) with SK-MEL-2; > 100 µM (inactive) with SK-MEL-28; > 100 µM (inactive) in the assay on NCI-H460. Besides, the GI50 in the assay with HCT-116 and in the assay on SF-539 was > 100 µM (inactive) throughout.

On to `CN1C(=O)CCC1(O)C1C=CC=CC1` (centres undefined), for which the GI50 in the assay on KM-20L2, in the assay on SK-OV-3, with SNB-78, in the assay with OVCAR-5, in the assay on K562 and in the assay with MOLT-4 was > 100 µM (inactive) each time. Moreover, the GI50 in the assay with M19-MEL is > 100 µM (inactive); in the assay with SF-268, > 100 µM (inactive); in the assay with HCT-15, greater than 100 µM; with A549, > 100 µM (inactive); in the assay on NCI-H23, > 100 µM (inactive); in the assay on SK-MEL-28 it was > 100 µM (inactive). Moreover, the GI50 in the assay on NCI-H460, in the assay on HCT-116 and in the assay on SF-539 was > 100 µM (inactive) throughout.

`CC(=O)Nc1ccc(-c2nnc(SCC(=O)Nc3cccc([N+](=O)[O-])c3)o2)cc1`: the GI50 with KM-20L2 was 17.8 µM (inactive); in the assay on SK-OV-3 it was 11.1 µM (inactive); in the assay with SNB-78 it was 18 µM (inactive); in the assay with OVCAR-5, 23.9 µM (inactive); with K562, 10.3 µM (inactive); in the assay with MOLT-4 it was 4.39 µM (inactive). Moreover, the GI50 with M19-MEL was 15.1 µM (inactive); in the assay with SF-268, 16.1 µM (inactive); in the assay on HCT-15, 15.4 µM; in the assay with A549, 17.5 µM (inactive); in the assay on SK-MEL-2, 18.3 µM (inactive); with NCI-H23, 5.13 µM (inactive). Besides, the GI50 is 16.5 µM (inactive) in the assay with SK-MEL-28, 14.5 µM (inactive) with NCI-H460, 14 µM (inactive) in the assay on HCT-116 and 15.8 µM (inactive) in the assay on SF-539.

Take `N=C(N)SCCc1cn2ccccc2n1`: the GI50 in the assay on SNB-78, with OVCAR-5, in the assay on K562, in the assay on MOLT-4, in the assay with M19-MEL and in the assay with SF-268 was > 100 µM (inactive) throughout. The GI50 in the assay on HCT-15 was greater than 100 µM; in the assay on A549, > 100 µM (inactive); with SK-MEL-2, > 100 µM (inactive); with NCI-H23, > 100 µM (inactive); in the assay on SK-MEL-28, > 100 µM (inactive); in the assay with NCI-H460, > 100 µM (inactive). The GI50 with HCT-116, in the assay with EKVX and with SF-539 was > 100 µM (inactive) each time.

In the case of `CC(C)C1CC(O)O[C@@H]([C@@H](C)[C@H]2CC(=O)[C@@H]3[C@@H]4[C@@H](O)[C@H](O)[C@H]5[C@@H](O)[C@H](O)CC[C@]5(C)[C@H]4CC[C@]23C)C1` (some centres undefined), the GI50 in the assay with KM-20L2 was > 100 µM (inactive); with SK-OV-3, 34.5 µM (inactive); in the assay with SNB-78, 38.9 µM (inactive); in the assay with K562, > 100 µM (inactive); with MOLT-4, > 100 µM (inactive); with M19-MEL it was 37.1 µM (inactive). Moreover, the GI50 in the assay with SF-268 was 39.9 µM (inactive); with HCT-15, greater than 100 µM; with A549, 53.1 µM (inactive); with SK-MEL-2, 53.6 µM (inactive); in the assay with NCI-H23, 36 µM (inactive); with SK-MEL-28 it was > 100 µM (inactive). The GI50 with NCI-H460 was > 100 µM (inactive); with HCT-116 it was 29.4 µM (inactive); in the assay with EKVX, 66.1 µM (inactive); in the assay with SF-539, > 100 µM (inactive).

The values are drawn from ChEMBL document CHEMBL1201862, “PubChem BioAssay data set” (2004).
